Measurements taken from ChEMBL document CHEMBL1909046, “DrugMatrix in vitro pharmacology data”.

Assays:
[1] = molecular target: T1, Leukotriene C4 synthase (Cavia porcellus, UniProt A6XA80); format: tissue-based, Lung;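 also: enzyme inhibition assay of leukotriene C4 synthase, using LTA4 as the substrate; in other assays of this panel Not Active means under 50% inhibition at 10 µM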
T1 sequence (A6XA80 whole entry): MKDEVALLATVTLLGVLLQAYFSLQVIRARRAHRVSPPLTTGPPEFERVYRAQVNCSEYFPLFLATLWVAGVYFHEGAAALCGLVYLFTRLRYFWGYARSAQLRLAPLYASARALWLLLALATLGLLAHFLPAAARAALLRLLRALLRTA

[2] = DRUGMATRIX: beta-Lactamase enzyme inhibition (substrate: Nitrocefin); parameters: species or system Bacillus cereus; conditions: Not Active = under 50% inhibition at 10 µM
[3] = molecular target: Matrix metalloproteinase-9 (Homo sapiens, UniProt P14780); assay: biochemical; format: cell-based;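 also: inhibition of isolated MMP-9 enzyme activity toward a synthetic peptide substrate, from the DrugMatrix protease screening panel; in other assays of this panel Not Active means under 50% inhibition at 10 µM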
Matrix metalloproteinase-9, sequence (P14780 whole entry): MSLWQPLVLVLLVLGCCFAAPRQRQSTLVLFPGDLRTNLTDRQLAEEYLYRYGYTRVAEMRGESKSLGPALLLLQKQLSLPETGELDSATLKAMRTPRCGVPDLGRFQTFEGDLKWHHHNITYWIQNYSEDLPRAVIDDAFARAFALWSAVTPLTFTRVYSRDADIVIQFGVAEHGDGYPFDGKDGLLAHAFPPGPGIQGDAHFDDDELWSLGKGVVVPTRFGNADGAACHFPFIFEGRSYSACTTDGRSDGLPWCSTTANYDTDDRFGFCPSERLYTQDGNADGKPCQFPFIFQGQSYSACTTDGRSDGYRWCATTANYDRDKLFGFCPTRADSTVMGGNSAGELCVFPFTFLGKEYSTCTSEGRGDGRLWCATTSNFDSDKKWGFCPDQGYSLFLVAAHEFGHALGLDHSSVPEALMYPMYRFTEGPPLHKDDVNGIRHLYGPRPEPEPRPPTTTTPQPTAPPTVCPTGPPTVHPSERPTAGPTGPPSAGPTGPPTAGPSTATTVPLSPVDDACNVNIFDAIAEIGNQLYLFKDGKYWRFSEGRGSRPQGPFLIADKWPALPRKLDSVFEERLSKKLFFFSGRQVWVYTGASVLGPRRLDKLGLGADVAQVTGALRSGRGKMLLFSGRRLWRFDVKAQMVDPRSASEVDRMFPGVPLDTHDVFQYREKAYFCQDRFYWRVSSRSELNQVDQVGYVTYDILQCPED

[4] = molecular target: T2, Adenosine receptor A3 (Homo sapiens, UniProt P0DMS8); format: cell membranes, CHO-K1, Membrane;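 also: radioligand binding assay with AB-MECA serving as the labeled ligand; in other assays of this panel Not Active means under 50% inhibition at 10 µM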
T2 sequence (P0DMS8 whole entry): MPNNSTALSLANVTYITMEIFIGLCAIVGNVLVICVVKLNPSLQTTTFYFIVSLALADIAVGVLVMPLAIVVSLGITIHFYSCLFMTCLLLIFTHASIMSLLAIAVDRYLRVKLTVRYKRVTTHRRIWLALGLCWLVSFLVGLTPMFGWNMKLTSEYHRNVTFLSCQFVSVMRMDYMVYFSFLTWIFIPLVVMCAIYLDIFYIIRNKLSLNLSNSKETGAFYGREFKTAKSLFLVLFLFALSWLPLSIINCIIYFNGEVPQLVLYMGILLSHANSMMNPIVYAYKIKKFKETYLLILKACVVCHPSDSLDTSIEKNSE

[5] = molecular target: Glycine receptor (Rattus norvegicus, UniProt P22771+P24524+P07727+P20781); format: cell membranes, Wistar, Spinal cord, Membrane; also: in other assays of this panel Not Active means under 50% inhibition at 10 µM
[6] = molecular target: T3, 5-hydroxytryptamine receptor 1A (Rattus norvegicus, UniProt P19327); format: cell membranes, Membrane; conditions: cho-k1; also: in other assays of this panel Not Active means under 50% inhibition at 10 µM
T3 sequence (P19327 whole entry): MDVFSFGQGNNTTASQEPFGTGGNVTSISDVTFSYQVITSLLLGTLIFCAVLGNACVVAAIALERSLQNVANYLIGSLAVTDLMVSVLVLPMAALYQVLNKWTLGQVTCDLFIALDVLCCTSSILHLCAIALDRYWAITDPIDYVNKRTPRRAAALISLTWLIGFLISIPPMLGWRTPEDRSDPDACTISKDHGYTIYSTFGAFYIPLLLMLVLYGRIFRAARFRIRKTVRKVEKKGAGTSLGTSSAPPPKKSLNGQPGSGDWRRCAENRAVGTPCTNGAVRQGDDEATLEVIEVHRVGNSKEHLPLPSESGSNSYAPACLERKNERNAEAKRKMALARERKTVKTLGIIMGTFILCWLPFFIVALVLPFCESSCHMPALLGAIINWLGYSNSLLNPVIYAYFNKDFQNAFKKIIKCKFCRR

[7] = molecular target: T4, Angiotensin-converting enzyme (Oryctolagus cuniculus, UniProt P12822); format: tissue-based, Lung
T4 sequence (P12822 whole entry): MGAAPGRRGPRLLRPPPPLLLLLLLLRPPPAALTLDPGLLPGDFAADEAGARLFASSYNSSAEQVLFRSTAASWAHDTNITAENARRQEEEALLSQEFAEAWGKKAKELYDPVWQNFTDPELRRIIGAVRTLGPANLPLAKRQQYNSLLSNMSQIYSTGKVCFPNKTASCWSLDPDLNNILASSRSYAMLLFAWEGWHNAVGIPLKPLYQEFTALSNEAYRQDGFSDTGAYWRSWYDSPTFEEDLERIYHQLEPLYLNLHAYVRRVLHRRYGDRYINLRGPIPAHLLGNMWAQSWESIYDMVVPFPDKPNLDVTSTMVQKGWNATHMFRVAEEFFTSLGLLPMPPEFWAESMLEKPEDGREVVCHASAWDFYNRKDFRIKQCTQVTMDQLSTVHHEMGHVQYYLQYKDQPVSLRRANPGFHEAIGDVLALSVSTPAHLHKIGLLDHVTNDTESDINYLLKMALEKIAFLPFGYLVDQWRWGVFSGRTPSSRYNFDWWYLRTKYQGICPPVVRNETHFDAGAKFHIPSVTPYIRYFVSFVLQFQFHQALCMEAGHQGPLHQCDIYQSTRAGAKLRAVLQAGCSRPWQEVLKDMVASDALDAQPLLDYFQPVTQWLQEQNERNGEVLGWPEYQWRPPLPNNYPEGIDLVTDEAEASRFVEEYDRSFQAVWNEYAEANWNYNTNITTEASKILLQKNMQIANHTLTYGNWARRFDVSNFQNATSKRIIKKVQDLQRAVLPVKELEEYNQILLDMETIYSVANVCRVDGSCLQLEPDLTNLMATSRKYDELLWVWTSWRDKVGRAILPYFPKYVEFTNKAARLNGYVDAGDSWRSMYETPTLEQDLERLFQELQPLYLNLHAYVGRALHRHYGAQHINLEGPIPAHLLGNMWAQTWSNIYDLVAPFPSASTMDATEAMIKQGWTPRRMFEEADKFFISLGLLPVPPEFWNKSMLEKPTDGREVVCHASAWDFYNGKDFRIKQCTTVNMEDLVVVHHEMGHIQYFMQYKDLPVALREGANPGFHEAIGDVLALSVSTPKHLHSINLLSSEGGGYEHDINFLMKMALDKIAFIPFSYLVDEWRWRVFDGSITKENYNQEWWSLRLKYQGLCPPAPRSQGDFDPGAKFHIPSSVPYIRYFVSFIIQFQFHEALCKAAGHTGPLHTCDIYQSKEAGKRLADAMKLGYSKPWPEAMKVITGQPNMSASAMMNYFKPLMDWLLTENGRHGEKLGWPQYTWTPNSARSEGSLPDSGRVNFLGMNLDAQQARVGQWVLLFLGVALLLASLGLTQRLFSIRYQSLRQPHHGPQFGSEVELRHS

Structure (SMILES) | IC50 [1] | IC50 [2] | Ki [2] | IC50 [3] | IC50 ([4]; cho-k1) | IC50 [5] | IC50 [6] | IC50 [7] | IC50 ([3]; read-out: IC50) | IC50 ([4]; read-out: IC50) | Ki ([4]; read-out: Ki)
O=C(N[C@H](CO)[C@H](O)c1ccc([N+](=O)[O-])cc1)C(Cl)Cl [CHLORAMPHENICOL] | Not Active | Not Active | Not Active | Not Active | Not Active | Not Active | Not Active | Not Active |  |  | 
ClC(Cl)Cl [CHLOROFORM] | Not Active | Not Active | Not Active | Not Active | Not Active | Not Active | Not Active | Not Active |  |  | 
C=C1CC[C@H](O)C/C1=C/C=C1\CCC[C@]2(C)[C@@H]([C@H](C)CCCC(C)C)CC[C@@H]12 [CHOLECALCIFEROL] | Not Active | Not Active | Not Active | Not Active | Not Active | Not Active | Not Active | Not Active |  |  | 
C[N+](C)(C)CCO.[Cl-] [CHOLINE CHLORIDE] | Not Active | Not Active | Not Active | Not Active | Not Active | Not Active | Not Active | Not Active |  |  | 
CCOC(=O)C(C)(C)Oc1ccc(Cl)cc1 [CLOFIBRATE] | Not Active | Not Active | Not Active | Not Active | Not Active | Not Active | Not Active | Not Active |  |  | 
CC(=O)OCC(=O)[C@@]1(O)CC[C@H]2[C@@H]3CCC4=CC(=O)CC[C@]4(C)[C@H]3C(=O)C[C@@]21C [CORTISONE ACETATE] | Not Active | Not Active | Not Active | Not Active | Not Active | Not Active | Not Active | Not Active |  |  | 
O=c1ccc2ccccc2o1 [COUMARIN] | Not Active | Not Active | Not Active | Not Active | Not Active | Not Active | Not Active | Not Active |  |  | 
C[C@@H]1C[C@@H]([C@H](O)CC2CC(=O)NC(=O)C2)C(=O)[C@@H](C)C1 [CYCLOHEXIMIDE] | Not Active | Not Active | Not Active | Not Active | Not Active | Not Active | Not Active | Not Active |  |  | 
C/C=C/C[C@@H](C)[C@@H](O)[C@H]1C(=O)N[C@@H](CC)C(=O)N(C)CC(=O)N(C)[C@@H](CC(C)C)C(=O)N[C@@H](C(C)C)C(=O)N(C)[C@@H](CC(C)C)C(=O)N[C@@H](C)C(=O)N[C@H](C)C(=O)N(C)[C@@H](CC(C)C)C(=O)N(C)[C@@H](CC(C)C)C(=O)N(C)[C@@H](C(C)C)C(=O)N1C [CYCLOSPORINE] | Not Active | Not Active | Not Active | Not Active | Not Active | Not Active | Not Active | Not Active |  |  | 
CN(C)/N=N/c1[nH]cnc1C(N)=O [DACARBAZINE] | Not Active | Not Active | Not Active |  | Not Active | Not Active | Not Active | Not Active | 0.556 µM |  | 
COc1ccc2c(c1)[C@]13CCCC[C@@H]1[C@H](C2)N(C)CC3 [DEXTROMETHORPHAN] | Not Active | Not Active | Not Active | Not Active | Not Active | Not Active | Not Active | Not Active |  |  | 
CC(=O)Nc1c(I)c(NC(C)=O)c(I)c(C(=O)O)c1I [DIATRIZOIC ACID] | Not Active | Not Active | Not Active | Not Active | Not Active | Not Active | Not Active | Not Active |  |  | 
COP(=O)(OC)OC=C(Cl)Cl [DICHLORVOS] | Not Active | Not Active | Not Active | Not Active | Not Active | Not Active | Not Active | Not Active |  |  | 
O=C(O)Cc1ccccc1Nc1c(Cl)cccc1Cl [DICLOFENAC] | Not Active | Not Active | Not Active | Not Active | Not Active | Not Active | Not Active | Not Active |  |  | 
C[C@H]1O[C@@H](O[C@H]2[C@@H](O)C[C@H](O[C@H]3[C@@H](O)C[C@H](O[C@H]4CC[C@@]5(C)[C@H](CC[C@@H]6[C@@H]5CC[C@]5(C)[C@@H](C7=CC(=O)OC7)CC[C@]65O)C4)O[C@@H]3C)O[C@@H]2C)C[C@H](O)[C@@H]1O [DIGITOXIN] | Not Active | Not Active | Not Active | Not Active | Not Active | Not Active | Not Active | Not Active |  |  | 
CCN1CC(CCN2CCOCC2)C(c2ccccc2)(c2ccccc2)C1=O (stereo unspecified) [DOXAPRAM] | Not Active | Not Active | Not Active | Not Active | Not Active | Not Active | Not Active | Not Active |  |  | 
Cn1c(=O)c2c(ncn2CC2OCCO2)n(C)c1=O [DOXOFYLLINE] | Not Active | Not Active | Not Active | Not Active | Not Active | Not Active | Not Active | Not Active |  |  | 
COc1cccc2c1C(=O)c1c(O)c3c(c(O)c1C2=O)C[C@@](O)(C(=O)CO)C[C@@H]3O[C@H]1C[C@H](N)[C@H](O)[C@H](C)O1 [DOXORUBICIN] | Not Active | Not Active | Not Active | Not Active | Not Active | Not Active | Not Active | Not Active |  |  | 
COc1cccc2c1C(=O)c1c(O)c3c(c(O)c1C2=O)C[C@@](O)(C(=O)CO)C[C@@H]3O[C@H]1C[C@H](N)[C@@H](O)[C@H](C)O1 [EPIRUBICIN] | Not Active | Not Active | Not Active | Not Active | Not Active | Not Active | Not Active | Not Active |  |  | 
C[C@]12CC[C@@H]3c4ccc(OC(=O)c5ccccc5)cc4CC[C@H]3[C@@H]1CC[C@@H]2O [ESTRADIOL BENZOATE] | Not Active | Not Active | Not Active | Not Active |  | Not Active | Not Active | Not Active |  | 21.8 µM | 12.3 µM
